Earlier results on two substances are cited in patent US20130071435A1, “NOVEL HERBAL FORMULATION FOR THE MODULATION OF IMMUNE SYSTEM OF HIV INFECTED PATIENTS AND A PROCESS OF PREPARATION THEREOF” (Sunil Kumar Swamy Rajan and Arun Kumar Swamy Rajan, priority 2011, published 2013).

The conditions of this data set: experimental, in-vitro and in-vivo studies.

In the case of sitoindoside 1×, the immuno-potentiating activity result was “significant immuno-potentiating activity”.

For sitoindoside ×, the immuno-potentiating activity result is on record as “significant immuno-potentiating activity”.
